In ChEMBL document CHEMBL5729255, “Compounds and uses thereof” (2022):

biological target: T1, Bromodomain-containing protein 9 (Homo sapiens, UniProt Q9H8M2); test: Bromodomain TR-FRET Competition Binding Assay: A mixture of biotinylated-ligand and SureLight Allophycocyanin-Streptavidin (APC-SA, PerkinElmer AD0201) in 50 mM HEPES (pH 7.4), 50 mM NaCl, 1 mM TCEP (pH 7), 0.01% (v/v) Tween-20, 0.01% (w/v) bovine serum albumin was added to a white 384-well PerkinElmer Proxiplate Plus plate. DMSO or 3-fold serially diluted compounds were then added to the Proxiplate followed by addition of Flag-BRD9. After a 10-minute incubation at room temperature, Eu-W1024 anti-FLAG (PerkinElmer, AD0273) was added. The final reaction miture that contained 3.75 nM biotinylated ligand, 3 nM Flag-BRD9, 7.5 nM SureLight Allophycocyanin-Streptavidin, and 0.2 nM Eu-W1024 anti-FLAG was incubated at room temperature for 90 minutes.
T1 sequence (Q9H8M2 whole entry): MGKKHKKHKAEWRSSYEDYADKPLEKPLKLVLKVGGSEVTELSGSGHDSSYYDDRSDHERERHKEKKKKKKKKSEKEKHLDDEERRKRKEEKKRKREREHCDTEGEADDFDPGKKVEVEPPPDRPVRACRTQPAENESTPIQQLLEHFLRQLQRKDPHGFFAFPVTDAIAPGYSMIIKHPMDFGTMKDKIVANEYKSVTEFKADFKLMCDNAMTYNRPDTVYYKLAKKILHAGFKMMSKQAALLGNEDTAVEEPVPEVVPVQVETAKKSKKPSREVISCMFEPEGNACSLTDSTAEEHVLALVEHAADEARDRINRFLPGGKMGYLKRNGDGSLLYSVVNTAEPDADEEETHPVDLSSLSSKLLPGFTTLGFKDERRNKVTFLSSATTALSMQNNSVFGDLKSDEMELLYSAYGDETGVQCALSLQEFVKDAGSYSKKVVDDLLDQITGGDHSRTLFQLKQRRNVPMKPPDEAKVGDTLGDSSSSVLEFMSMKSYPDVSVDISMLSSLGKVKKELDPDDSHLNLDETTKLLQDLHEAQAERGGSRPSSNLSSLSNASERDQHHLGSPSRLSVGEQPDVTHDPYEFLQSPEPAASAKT

IC50 [nM]	Compound
< 10	COc1cc(-c2cn(C)c(=O)c3cnccc23)cc(OC)c1CN1CCN(C(=O)CCCCOc2cccc3c2C(=O)N(C2CCC(=O)NC2=O)C3=O)CC1 (stereo not given)
> 10	COc1cc(-c2cn(C)c(=O)c3cnccc23)cc(OC)c1CN(C)Cc1cn(-c2ccc3c(c2)C(=O)N(C2CCC(=O)NC2=O)C3=O)nn1 (stereo not given)
< 10	COc1cc(-c2cn(C)c(=O)c3cnccc23)cc(OC)c1CN1CC(OCc2cn(CCOc3ccc4c(c3)C(=O)N(C3CCC(=O)NC3=O)C4=O)nn2)C1 (stereo not given)
< 10	COc1cc(-c2cn(C)c(=O)c3cnccc23)cc(OC)c1CN1CC(S(=O)(=O)NCCCCNc2ccc3c(c2)C(=O)N(C2CCC(=O)NC2=O)C3=O)C1 (stereo not given)
> 10	COc1cc(-c2cn(C)c(=O)c3cnccc23)cc(OC)c1CN1CCCC(OCc2cn(CCCCOc3ccc4c(c3)C(=O)N(C3CCC(=O)NC3=O)C4=O)nn2)C1 (stereo not given)
